From US20180038871A1, “DIAGNOSTIC BIOMARKER TO IDENTIFY WOMEN AT RISK FOR PRETERM DELIVERY” (CEDARS-SINAI MEDICAL CENTER, priority 2009, published 2018) come the findings set out here.

Entries after “also recorded” stand apart in the source; their conditions may differ.

The assay deals with Peripheral blood mononuclear cells (PBMC). Briefly: LPS-induced cytokine expression profile in PBMC with or without cortisol pretreatment (Bioplex). Format: cell-based, human. More on the design: key to Cortisol Effect on IFN-g secretion level / LPS Effect on IFN-g secretion level / Cortisol Effect on TNF-a secretion level / Cortisol Effect on GM-CSF secretion level / LPS Effect on GM-CSF secretion level / Cortisol Effect on IL-2 secretion level / LPS Effect on IL-2 secretion level / Cortisol Effect on IL-4 secretion level / Cortisol Effect on IL-10 secretion level: n/c = No Change. How it is done: Peripheral blood mononuclear cells (PBMC) from non-pregnant (at least 5-6 years post-partum) women with history of preterm or full term delivery, in addition to the microbial component lipopolysaccharide (LPS)-induced cytokine expression profile were examined. PBMC were separated from whole blood using Ficoll gradient. The cells were counted and equal numbers of cells were plated in 24 well plates. PBMC were treated with cortisol (50 or 300 ug/ml) or media for 1 hour prior to stimulation with LPS (0, 1, or 100 ug/ml) for 24 hours.
The PBMC were lysed and the supernatant was examined for inflammatory and anti-inflammatory cytokine expression by using Bioplex technology (Bio-rad).
In this study two patients were preterm and four were full term. There were 9 samples per patient (3×3 design) and all samples from each patient were analyzed twice for cytokine concentrations with the exception of one full term subject who only had one analysis of each sample. As a result there are a total of 99 observations for each cytokine measured. The assay simultaneously measured concentrations of 11 inflammatory markers: IL-1ra (IL1-receptor antagonist), IL-2, IL-4, IL-5, IL-8, IL-10, IL-12, IL-13, GM-CSF, IFN-g, and TNF-a.
All raw data was tested via the Kolmogorov-Smirnov test to determine if the data followed a normal distribution. Log-transformations were performed for all data found to have a non-normal distribution prior to further statistical analysis. For each cytokine, a mixed effects model was used to examine all data for significant effects with the outcome variable as the cytokine concentration; the fixed predictor variables as LPS concentration, cortisol concentration, and delivery status (pre- or full-term); and the random effect due to the replicate data points. To test the interaction of the three fixed predictor variables on cytokine concentration, both first and second level interactions ware added to each cytokine model. Post-hoc testing was performed using a Student's t-test.
Using the same mixed model regression, estimated group means and standard errors were calculated. Differences between preterm and full-term pregnancies were considered significant where p <0.10.

Setting [1] is: 0 or 1 ug/ml LPS 24 hours, 0 or 300 ug/ml cortisol pretreatment, mixed modeling.
Where [2] appears, read: 0 or 300 ug/ml cortisol pretreatment 1 hour, 0 or 1 ug/ml LPS 24 hours, mixed modeling.
Where [3] appears, read: 0 or 300 ug/ml cortisol pretreatment 1 hour, 0 or 1 ug/ml LPS 24 hours, mixed modeling, listed as cortisol.
The mark [4] stands for this setting: all 99 observations, 300 ug/ml vs 50 ug/ml cortisol.

Take lipopolysaccharide [LPS]: under setting [1], the “LPS Effect on GM-CSF secretion level” value is recorded as “n/c, p = .19”; the “LPS Effect on IFN-g secretion level” value was “n/c, p = .17”; the “LPS Effect on IL-1ra secretion level” value was “increased secretion; also recorded: increase, p = .09”; the “LPS Effect on IL-2 secretion level” value is reported as “n/c, p = .50”. Moreover, under setting [1], the “LPS Effect on IL-4 secretion level” value was “increased secretion; also recorded: increase, p = .07”; the “LPS Effect on IL-10 secretion level” value is given as “increased secretion; also recorded: increase, p = .01”; the “LPS Effect on IL-13 secretion level” value was “increased secretion; also recorded: increase, p = .04”; the “LPS Effect on TNF-a secretion level” value is on record as “increased secretion; also recorded: increase, p = .04”. For the same compound, the “Difference between the effects of 1 ug/ml and 100 ug/ml LPS, all cytokines measured” value (all 99 observations, 1 ug/ml vs 100 ug/ml LPS) is “no significant difference”.

With `C[C@]12CCC(=O)C=C1CC[C@@H]1[C@@H]2[C@@H](O)C[C@@]2(C)[C@H]1CC[C@]2(O)C(=O)CO` [Cortisol, cortisol], under setting [2], the “Cortisol Effect on GM-CSF secretion level” value is “n/c, p = .51”; the “Cortisol Effect on IFN-g secretion level” value is listed as “n/c, p = .10”; the “Cortisol Effect on IL-1ra secretion level” value is “decrease, p = .03”; the “Cortisol Effect on IL-2 secretion level” value is reported as “n/c, p = .80”. Besides, under setting [2], the “Cortisol Effect on IL-4 secretion level” value is “n/c, p = .26”; the “Cortisol Effect on IL-10 secretion level” value is “n/c, p = .12”; the “Cortisol Effect on IL-13 secretion level” value is reported as “decrease, p = .01”; the “Cortisol Effect on TNF-a secretion level” value was “n/c, p = .41”. Under setting [3], the “Cortisol Effect on IL-1ra secretion level” value is given as “suppress secretion” and the “Cortisol Effect on IL-13 secretion level” value is “suppress secretion”. For the same compound, under setting [4], the “Suppression of IL-1ra level, 300 ug/ml cortisol compared with 50 ug/ml” value is on record as “more significant effect to suppress cytokine levels”; the “Suppression of IL-10 level, 300 ug/ml cortisol compared with 50 ug/ml” value is “more significant effect to suppress cytokine levels”; the “Suppression of IL-13 level, 300 ug/ml cortisol compared with 50 ug/ml” value is recorded as “more significant effect to suppress cytokine levels”.
